In ChEMBL document CHEMBL1137428, “Synthesis and monoamine transporter binding properties of 2,3-cyclo analogues of 3beta-(4'-aminophenyl)-2beta-tropanemethanol” (J Med Chem, 2006) one finds IC50 and Ki data, which are given here for 13 compounds.

Assay [1] addresses Sodium-dependent dopamine transporter (Homo sapiens, UniProt Q01959). Description: Displacement of [3H]WIN-35428 from human DAT. In general terms: Displacement assays read how much labelled ligand stays bound in the presence of the test substance.
Assay [2] addresses Sodium-dependent serotonin transporter (Homo sapiens, UniProt P31645). Description: Displacement of [3H]paroxetine from human 5HTT.
The target in assay [3] is Sodium-dependent noradrenaline transporter (Homo sapiens, UniProt P23975). Description: Displacement of [3H]nisoxetine from human NET.
Chain of Sodium-dependent noradrenaline transporter (P23975 whole entry): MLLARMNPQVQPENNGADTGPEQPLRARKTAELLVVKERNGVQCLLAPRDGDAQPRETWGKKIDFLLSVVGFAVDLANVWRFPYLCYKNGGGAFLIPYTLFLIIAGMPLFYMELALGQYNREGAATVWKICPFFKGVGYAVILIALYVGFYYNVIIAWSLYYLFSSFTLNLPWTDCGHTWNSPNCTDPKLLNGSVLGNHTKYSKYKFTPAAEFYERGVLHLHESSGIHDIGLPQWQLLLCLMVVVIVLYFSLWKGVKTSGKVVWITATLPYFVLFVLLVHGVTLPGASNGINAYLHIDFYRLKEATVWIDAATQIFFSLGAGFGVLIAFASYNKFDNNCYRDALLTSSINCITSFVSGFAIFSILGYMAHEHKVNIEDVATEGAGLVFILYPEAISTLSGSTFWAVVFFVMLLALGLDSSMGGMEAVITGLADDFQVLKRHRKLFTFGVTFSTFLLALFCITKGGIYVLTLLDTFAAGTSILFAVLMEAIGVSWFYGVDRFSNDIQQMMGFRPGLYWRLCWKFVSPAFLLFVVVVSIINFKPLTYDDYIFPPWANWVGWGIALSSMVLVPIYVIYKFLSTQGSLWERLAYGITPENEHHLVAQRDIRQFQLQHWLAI

Chain of Sodium-dependent dopamine transporter (Q01959 whole entry): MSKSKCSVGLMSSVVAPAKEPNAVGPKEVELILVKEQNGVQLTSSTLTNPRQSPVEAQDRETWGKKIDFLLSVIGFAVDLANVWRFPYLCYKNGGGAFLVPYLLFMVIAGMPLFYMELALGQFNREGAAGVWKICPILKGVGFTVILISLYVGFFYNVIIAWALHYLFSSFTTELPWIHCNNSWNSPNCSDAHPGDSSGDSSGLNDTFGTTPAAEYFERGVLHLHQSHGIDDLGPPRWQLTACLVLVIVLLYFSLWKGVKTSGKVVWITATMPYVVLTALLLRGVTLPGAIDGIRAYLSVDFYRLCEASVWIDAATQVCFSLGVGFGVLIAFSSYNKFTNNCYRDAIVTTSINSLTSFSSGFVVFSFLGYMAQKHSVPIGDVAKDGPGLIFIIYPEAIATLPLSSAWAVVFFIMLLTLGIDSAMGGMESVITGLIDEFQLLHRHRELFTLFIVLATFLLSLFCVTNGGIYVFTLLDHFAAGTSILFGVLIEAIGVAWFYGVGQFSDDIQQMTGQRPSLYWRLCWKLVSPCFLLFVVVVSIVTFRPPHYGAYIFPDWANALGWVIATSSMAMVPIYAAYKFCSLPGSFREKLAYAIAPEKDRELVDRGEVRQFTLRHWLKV
Chain of Sodium-dependent serotonin transporter (P31645 whole entry): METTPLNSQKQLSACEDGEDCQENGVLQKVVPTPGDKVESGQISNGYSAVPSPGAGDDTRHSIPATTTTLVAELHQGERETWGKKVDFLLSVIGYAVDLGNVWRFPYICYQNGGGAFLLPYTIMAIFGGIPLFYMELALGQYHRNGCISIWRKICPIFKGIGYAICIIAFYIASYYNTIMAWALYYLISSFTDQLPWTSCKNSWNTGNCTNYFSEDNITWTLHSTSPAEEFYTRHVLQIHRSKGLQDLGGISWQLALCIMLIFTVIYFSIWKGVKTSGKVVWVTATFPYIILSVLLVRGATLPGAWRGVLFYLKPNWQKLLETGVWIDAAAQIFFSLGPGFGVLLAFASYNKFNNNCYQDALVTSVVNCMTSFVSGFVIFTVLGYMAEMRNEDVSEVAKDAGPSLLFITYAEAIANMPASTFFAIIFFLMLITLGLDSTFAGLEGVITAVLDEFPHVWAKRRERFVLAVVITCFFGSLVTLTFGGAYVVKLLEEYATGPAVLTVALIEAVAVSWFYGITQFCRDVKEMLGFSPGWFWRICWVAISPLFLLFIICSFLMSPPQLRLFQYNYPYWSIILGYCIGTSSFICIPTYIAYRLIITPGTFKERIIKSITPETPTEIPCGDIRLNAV

`CN1CCCCCCCCCC(=O)OCC2C(CC3CCC2N3C)c2ccc1cc2` (stereo not given): the IC50 – broadly, the midpoint of a concentration-inhibition curve – in assay [1] worked out at 150 nM; in assay [2], 380 nM; in assay [3], 2130 nM. The Ki (usually the dissociation constant of the complex between target and ligand, obtained from inhibition or displacement) in assay [2] is 94 nM; in assay [3], 1060 nM.

As to `CN1C2CCC1C1COC(=O)CCC(=O)CCC(=O)Nc3ccc(cc3)C1C2` (stereo not given), the IC50 in assay [1] was 160 nM; in assay [2], 5010 nM; in assay [3] it was 1400 nM. The Ki in assay [2] turned out to be 1230 nM; in assay [3], 710 nM.

With `CN1C2CCC1C1COC(=O)CCC3(CCC(=O)Nc4ccc(cc4)C1C2)c1ccccc1-c1ccccc13` (stereo not given), the values for the IC50 in assay [1], in assay [2] and in assay [3] were 290 nM, above 2000 nM and 980 nM, respectively. The same compound yielded a Ki in assay [3] of 490 nM.

Turning to `CN1C2CCC1C1COC(=O)CCCCC(=O)Nc3ccc(cc3)C1C2` (stereo not given), the IC50 in assay [1] was 890 nM; in assay [2], above 2000 nM. Moreover, in assay [3], the Ki is above 2000 nM.

For the compound `CN1C2CCC1C1COC(=O)CCCCCCCCC(=O)Nc3ccc(cc3)C1C2` (stereo not given), the IC50 in assay [1] stood at 130 nM; in assay [2], 7.8 nM; in assay [3] it was 2800 nM. Further, the Ki in assay [2] is 1.9 nM; in assay [3] it was 1400 nM.

As for `CN1C2CCC1C1COC(=O)CCCCCC(=O)Nc3ccc(cc3)C1C2` (stereo not given), the results for the IC50 in assay [1], in assay [2] and in assay [3] were 3.8 nM, 200 nM and 40 nM, respectively. The figures for the Ki in assay [2] and in assay [3] were 50 nM and 20 nM, respectively.

Regarding `CN1C2CCC1C1COC(=O)Cc3ccc(cc3)CC(=O)Nc3ccc(cc3)C1C2` (stereo not given), the IC50 in assay [1] was above 2000 nM. The Ki in assay [2] and in assay [3] was above 2000 nM each time.

For `CN1C2CCC1C1COC(=O)CCCCCCCC(=O)Nc3ccc(cc3)C1C2` (stereo not given), in assay [1], the IC50 turned out to be 410 nM. Besides, the Ki in assay [2] and in assay [3] was above 2000 nM in each case.

As for `CN1C2CCC1C1COC(=O)CCSCCC(=O)Nc3ccc(cc3)C1C2` (stereo not given), the results for the IC50 in assay [1], in assay [2] and in assay [3] were 170 nM, 6730 nM and 990 nM, respectively. Further, the figures for the Ki in assay [2] and in assay [3] were 1650 nM and 500 nM, respectively.

On to `CN1C2CCC1C1COC(=O)CCCCCCC(=O)Nc3ccc(cc3)C1C2` (stereo not given), for which the IC50 in assay [1] was 70 nM; in assay [2], 2090 nM; in assay [3] it was 3040 nM. The values for the Ki in assay [2] and in assay [3] were 513 nM and 1520 nM, respectively.

Consider `CN1CCCCCCCCCCCC(=O)OCC2C(CC3CCC2N3C)c2ccc1cc2` (stereo not given), for which the IC50 in assay [1] was 490 nM; in assay [2], 450 nM. The Ki in assay [2] is 110 nM; in assay [3], above 2000 nM.

On to `CN1C2CCC1C1COC(=O)CCCCCCCCCCC(=O)Nc3ccc(cc3)C1C2` (stereo not given), for which the IC50 in assay [1] was 390 nM; in assay [2], 1200 nM; in assay [3], 2320 nM. The Ki in assay [2] worked out at 290 nM; in assay [3], 1160 nM.

Take `CN1C(=O)CCCCCCCCC(=O)OCC2C(CC3CCC2N3C)c2ccc1cc2` (stereo not given): the IC50 in assay [1] came out at 1920 nM. Moreover, the Ki in assay [2] and in assay [3] was above 2000 nM each time.
